# Source: patent US5559150A, “N,N-disulfonylated aminobenzene carboxlic acids and the use thereof as thrombin inhibitors” (3-Dimensional Pharmaceuticals, Inc., priority 1995, dated 1996)
# Key:
# [1] = molecular target: T1, Purified human α-thrombin (Homo sapiens, UniProt P00734); experiment: In vitro inhibition of purified thrombin (hydrolysis of peptide p-nitroanilide substrate); assay type: biochemical
# T1 construct: Purified human α-thrombin; purchased Enzyme Research Laboratories Inc
# Procedure: (§1) All assays are based on the ability of the test compound to inhibit the hydrolysis of a peptide p-nitroanilide substrate. In a typical experiment, substrate is prepared in DMSO, and diluted into an assay buffer consisting of 50 mM HEPES, 130 mM NaCl, pH 7.5. The final concentration for each of the substrates is listed below. All substrate concentrations are at least 10-fold lower than Km to insure inhibition is competitive. Test compounds are prepared as a 1 mg/ml solution in DMSO, and 3 additional 10-fold dilutions in DMSO are prepared. Enzyme solutions are prepared at the concentrations listed below in assay buffer.
# (§2) In a typical IC50 determination, into each well of a 96 well plate is pipetted 280 uL of substrate solution, 10 μL of inhibitor solution, and the plate allowed to thermally equilibrate at 37° C. in a Molecular Devices Plate Reader for >10 minutes. Reactions were initiated by the addition of a 20 μL aliquot of enzyme, and the absorbance increase at 405 nm is recorded for 15 minutes. Data corresponding to less than 10% of the total substrate hydrolysis was used in the calculations. The ratio of the velocity (rate of the change in absorbance as a function of time) for a sample containing no inhibitor is divided by the velocity of a sample containing inhibitor, and is plotted as a function of inhibitor concentration. […]
# Factor Xa = molecular target: T2, Factor Xa (Homo sapiens, UniProt P00742); experiment: In vitro inhibition of purified Factor Xa (hydrolysis of peptide p-nitroanilide substrate); assay type: biochemical; conditions: Bz-Ile-Glu-Gly-Arg-pNa substrate; 10 nM Factor Xa; pH 7.5, 37° C.
# T2 construct: purchased Enzyme Research Laboratories Inc
# T2 sequence (P00742 235-488 limits assumed): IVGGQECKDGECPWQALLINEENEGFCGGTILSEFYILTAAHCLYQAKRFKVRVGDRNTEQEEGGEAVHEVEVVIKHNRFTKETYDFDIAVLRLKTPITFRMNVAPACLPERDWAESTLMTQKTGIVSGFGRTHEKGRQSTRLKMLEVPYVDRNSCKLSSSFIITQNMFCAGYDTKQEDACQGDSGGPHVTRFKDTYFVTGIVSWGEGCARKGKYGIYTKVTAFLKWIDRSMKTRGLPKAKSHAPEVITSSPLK
# T2 sequence (P00742 41-179 partner limits assumed): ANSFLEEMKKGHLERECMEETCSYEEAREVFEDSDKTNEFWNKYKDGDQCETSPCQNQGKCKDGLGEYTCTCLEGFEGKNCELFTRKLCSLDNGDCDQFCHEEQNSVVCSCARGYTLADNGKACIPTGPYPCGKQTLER
# Procedure: as §1
# as §2, with “Data corresponding to less than 10% of the total substrate hydrolysis was used in the calculations.” left out
# Factor Xa activity was assessed as the ability to hydrolyse the substrate Bz-Ile-Glu-Gly-Arg-pNa (obtained from Sigma Chemical Company, St Louis, Mo.). […]
smiles,measurement,setting,value
"O=C(O)c1cccc(N(S(=O)(=O)c2ccc3ccccc3c2)S(=O)(=O)c2ccc3ccccc3c2)c1 [Example 4, 3-[Bis[(2-naphthalenyl)sulfonyl]amino]benzoic Acid]",IC50,"[1]; Bz-Phe-Val-Arg-pNa substrate, 36 nM thrombin, pH 7.5, 37° C.",800 nM
same,"inhibition of thrombin, potency and selectivity (in words)","[1]; conclusion from Table 1, selectivity versus other serine proteases such as plasmin",selective and highly potent inhibitors of thrombin
same,IC50,Factor Xa,59 µM
